This test has as its system chondrocytes. The experiment in a line: Amino acid content in chondrocytes upon IL-1β stimulation, LC-MS. In kind it is cell-based, mouse. As to conditions: IL-1β treatment for 36 h, untreated 8740.24±584.31. As for the experimental part: Mouse chondrocytes were obtained from 7-day-old C57BL/6 mice (Shanghai Slac laboratory animal Co., Ltd.), and the procedure was as follows: under aseptic surgical conditions, bilateral knee cartilages of C57 mice were carefully stripped and digested with 0.2% neutral collagenase (Serva, Germany) for 8 h; cell precipitates were obtained by centrifugation, and the cells were resuspended in modified Eagle medium (DMEM) (Gibco, USA) containing 10% FBS, inoculated in culture dishes, and cultured with high-sugar DMEM medium (containing 10% FBS, 100 U/mL penicillin and 100 mg/L streptomycin) at 37° C. in a 5% CO2 constant temperature incubator. The medium was changed for the first time at 48 h. […] The cells were collected by centrifugation and resuspended, and the concentration was adjusted for inoculation in culture dishes. The cells were subcultured by the above method, and the obtained cells were labeled as P1, P2, P3 generations, etc. […]
After being treated with IL-1β for 36 h, the chondrocytes were scraped off, and the changes of amino acid content in the chondrocytes were detected by LC-MS.

Take “IL-1β: interleukin-1β used to stimulate chondrocytes”: the “Gln content in chondrocytes” value is 330±150.32 ng/10^7.

These data come from US20240033237A1, “USE OF A-KETOGLUTARATE IN MANUFACTURE OF MEDICAMENT” (TONGJI UNIVERSITY, priority 2019, published 2024).
